Test [1] is described as follows: DPPH free radical scavenging assay. Format: biochemical. The settings on record: mean ± SD, n = 3. As to the method: The DPPH free radical scavenging assay was performed according to a previously reported method. A series of different concentrations of the tested samples and the positive control ascorbic acid were mixed with freshly prepared DPPH (0.2 mM) in a 96-well microplate with a total volume of 150 μL. After leaving the mixture to react in the dark for 30 min, its absorbance was determined at 517 nm. All of the wells with only samples were set as blanks to obtain an absorbance value, which was subtracted from the test sample readings. The percentage inhibition (%) for each sample was calculated by the following formula: (1) Inhibition %=Absblank−Abssamples/Absblank×100%, where Absblank and Abssamples correspond to the absorbance units (at 517 nm) of DPPH solutions incubated in the absence and presence of the tested samples.
(DPPH is a stable violet radical that fades when it is reduced.)

A short description of test [2]: ABTS radical cation scavenging assay. The settings on record: mean ± SD, n = 3. The test is classed as biochemical. As to the method: The ABTS radical cation (ABTS·+) was prepared by reacting ABTS with potassium persulfate following the method previously described. The ABTS radical cation (ABTS·+) was prepared by mixing with 2.45 mM potassium persulfate and equal volumes of an ABTS solution (7 mM), and then, they were permitted to react in the darkness at room temperature for 12–16 h. Thereafter, the ABTS reagent was diluted with methyl alcohol until reaching an absorbance of 0.70 ± 0.02 units at 734 nm. In a 96-well microplate, ABTS reagent (190 μL in each well) and samples (10 μL in each well) were incubated at room temperature for 20 min. To determine the antioxidant capacity by the ABTS method, the experimental conditions and protocol were identical to those of the DPPH assay. The only difference was that the absorbance was measured at 734 nm.

Test [3] deals with insulin-resistant HepG2 cells. Kind of test: Glucose consumption by insulin-resistant HepG2 cells. The test is classed as cell-based, human. Particulars: for increase of glucose consumption: insulin resistance model of HepG2 cells, compounds at the dose of 50 μM, 24 h; for effect on glucose uptake (in words): insulin-resistant HepG2 cells. The protocol: HepG2 cells were cultivated in DMEM (without phenol red) containing 10% fetal bovine serum at 37°C in a humidified 5% CO2 atmosphere. An insulin-resistant cell model was established in accordance with a previous method, with some modifications. Cells were seeded in a 96-well plate with 1 × 10^4 cells per well. After incubation for 24 h, the medium was replaced with serum-free medium (without phenol red) containing 5 × 10^−6 mol/L insulin and incubated for 24 h. The cell culture medium was then replaced with the samples at different concentrations. The compounds were first dissolved in DMSO and subsequently diluted with medium containing 1% FBS to achieve different concentrations. The final concentration of DMSO was no more than 0.1%. At the end of the 24 h incubation, glucose in the medium was measured using the glucose oxidase-peroxidase method kit (Nanjing Jiancheng Biological Co., Ltd.). The amount of glucose consumption was calculated as follows: (glucose of the DMEM − glucose concentration of each well).

Test [4] has as its target T1, PTP1B (Homo sapiens, UniProt P18031).
T1 sequence (P18031 1-321 limits assumed): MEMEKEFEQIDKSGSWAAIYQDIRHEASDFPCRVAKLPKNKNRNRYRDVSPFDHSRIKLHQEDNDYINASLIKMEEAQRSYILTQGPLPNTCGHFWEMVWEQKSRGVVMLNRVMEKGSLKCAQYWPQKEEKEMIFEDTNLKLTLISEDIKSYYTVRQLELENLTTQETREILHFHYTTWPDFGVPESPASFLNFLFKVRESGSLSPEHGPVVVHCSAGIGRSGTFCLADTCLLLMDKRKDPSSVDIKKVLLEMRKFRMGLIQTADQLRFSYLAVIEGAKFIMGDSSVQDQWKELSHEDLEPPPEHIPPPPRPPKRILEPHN
As to the kind of experiment: PTP1B inhibitory assay (p-NPP substrate).
Experimental: PTP1B (10 μg/mL stock solution) was dissolved in 10 mM citrate buffer (pH 6.0), 1 mM dithiothreitol (DTT), and 1 mM N, N, N′, N′-ethylenediaminetetraacetate (EDTA). 20.0 μL PTP1B stock solution and 60 μL citrate buffer were added to each well of a 96-well plastic plate.

Test [5] deals with α-Glucosidase (from Baker's yeast). As to the kind of experiment: α-Glucosidase inhibitory assay (p-NPG substrate). The settings on record: read-out: IC50 α-Glucosidase inhibitory effect; mean ± SD, n = 3.
Experimental: The extract, fractions, and compounds were dissolved in 5% DMSO and then diluted with phosphate buffer. Briefly, 80 μL PBS, 20 μL of varying concentrations of sample solutions, and 20 μL α-glucosidase solution (1.3 U/mL) were mixed and incubated in 96-well plates at 37°C for 5 min. The reaction started when 20 μL p-nitrophenyl-α-D-glucopyranoside (2.5 mM) was added to the plate. The reaction mixture was incubated for 15 min at 37°C, and then, 80 μL Na2CO3 (0.2 M) was added to stop the reaction.
The target in test [6] is T1, PTP1B. As to the kind of experiment: PTP1B enzyme inhibition kinetic study (Lineweaver-Burk and Dixon plots). Also noted: purchased Abcam (Shanghai) Trading Co., Ltd. ab51277. The test is classed as biochemical. Particulars: for Ki: determined by Dixon plots; for Inhibitory mode: determined by Lineweaver-Burk plots. The protocol: Lineweaver−Burk double reciprocal plot and Dixon plot were used to study the kinetic behavior of active compounds against PTP1B and the corresponding inhibition constants (Ki values). […] The plate reader recorded the absorbance of the reaction mixture every 3 mins. The enzymatic velocity of the enzyme reaction was calculated based on the time − Δabs plot. The Lineweaver−Burk plot and Dixon plot were generated by GraphPad Prism 8 in order to determine the type of PTP1B inhibition and Ki.

Test [7] deals with T1, PTP1B. As to the kind of experiment: Fluorescence quenching measurement of PTP1B. Format: binding. Also noted: purchased Abcam (Shanghai) Trading Co., Ltd. ab51277. The settings on record: for Kd: read-out: K A (binding constant) (converted). The protocol:
180 μL of the buffer with 10 μL of the PTP1B at the concentration used in the assays were added into the 96-well black plates followed by 10 μL different concentrations (0, 6.25, 9.37, 12.5, 18.75, 25, and 50 μM) of inhibitor. The excitation wavelength was set at 250 nm, and the fluorescence emission spectra were collected from 300-400 nm with an emission bandwidth of 2 nm. The quenching parameters such as the Stern-Volmer constant (KSV), binding constant (KA), and the number of binding sites (n) were determined by the formula [33]. (4) F0/F=1+KSVQf,logFo−F/F=logKA+nlogQf, where F0 and F are the fluorescence intensities in the absence and presence of a quencher and [Q]f is a concentration of compounds.

Test [8] has as its system LPS-stimulated NO release in RAW 264.7 cells. As to the kind of experiment: Nitrite (Griess) assay of LPS-stimulated NO release. Format: cell-based. Particulars: Mus musculus, RAW264.7, LPS (1 μg/mL)-stimulated RAW 264.7 cells; mean ± SD, n = 3; read-out: IC50 NO production anti-inflammatory effect. As to the method: The level of NO production was tested by measuring the nitrite level in the culture medium with the Griess method. Cells were seeded at a density of 2 × 10^4 cells per well in 96-well plates. […] A microplate reader was employed for the optical density measurement at 570 nm.
(In general: Griess reagent forms a coloured azo dye with nitrite.)

The structures appear in SMILES notation.

`COC1(C)CC2c3c(cc(O)cc3O1)OC(c1ccc(O)c(O)c1)C2O` (stereo not shown) [Compound 1, Livischinol]: in test [1], the 50% inhibitory concentration (IC50) was determined as 46.8 ± 1.53 µM. Besides, the IC50 in test [2] worked out at 34.91 ± 0.07 µM. For the same compound, in test [3], the “increase of glucose consumption” value came out at 48.9% and the “effect on glucose uptake (in words)” value was “stimulated glucose uptake”. In test [4], this compound returned an IC50 of 9.41 ± 0.08 µM. In addition, the half-inhibitory concentration (IC50) in test [5] amounted to 37.3 ± 0.74 µM. In test [6], the Ki amounted to 1.49 µM and the Inhibitory mode entry is reported as “Competitive”. Further, in test [7], the “K SV (Stern-Volmer constant)” value was found to be 37000 L/mol, the “n (number of binding sites)” value came to 1.08 and the Kd was 10.5 µM.

Turning to `COc1cc(C2Oc3c(OC)cc(CCCOC4OC(CO)C(O)C(O)C4O)cc3C2CO)ccc1O` [Compound 17, (7S,8R)-dihydrodehydrodiconiferyl alcohol-9′-O-β-D-glucoside], the IC50 in test [1] is more than 100 µM; in test [2], 33.49 ± 0.31 µM; in test [8], 17.3 ± 0.6 µM; in test [4] it was more than 100 µM; in test [5], more than 100 µM.

As to `COc1cc([C@H](O)[C@H](CO)Oc2ccc(CCCO)cc2OC)ccc1O` [Compound 19, threo-(7S,8S)-guaiacyl-glycerol-β-O-4′-dihydroconiferyl ether], the IC50 in test [1] was more than 100 µM; in test [2], 54.67 ± 0.34 µM; in test [8] it was 43.6 ± 0.9 µM; in test [4], 95.63 ± 0.47 µM; in test [5] it was 58.37 ± 0.44 µM.

Consider `COc1cc([C@@H](O)[C@H](CO)Oc2ccc(CCCO)cc2OC)ccc1O` [Compound 20, erythro-(7R,8S)-guaiacyl-glycerol-β-O-4′-dihydroconiferyl ether], for which the IC50 in test [1] is more than 100 µM; in test [2] it was 60.92 ± 0.46 µM; in test [8], 53.16 ± 0.24 µM; in test [4] it was 93.6 ± 1.07 µM; in test [5], 52.6 ± 1.33 µM.

Take `COc1cc(CCCO)ccc1O[C@@H](CO)[C@H](O)c1cc(OC)c(O)c(OC)c1` [Compound 21]: the IC50 in test [1] is more than 100 µM; in test [2] it was 93 ± 0.54 µM; in test [8], 55.54 ± 0.41 µM; in test [4], 67 ± 1.2 µM; in test [5] it was 61.8 ± 0.76 µM.

For `COc1cc([C@@H](O)[C@H](CO)Oc2ccc(CCCO[C@@H]3O[C@H](CO)[C@@H](O)[C@H](O)[C@H]3O)cc2OC)ccc1O` [Compound 22, erythro-(7R,8S)-4,7,9,9′-tetrahydroxy-3,3′-dimethoxy-8-O-4′-neolignan-9′-O-β-D-glucopyranoside], the IC50 in test [1] was more than 100 µM; in test [2] it was 26.97 ± 0.21 µM; in test [8], 83.16 ± 0.24 µM; in test [4], 92.39 ± 0.71 µM; in test [5] it was 73.1 ± 2.33 µM.

Regarding `COc1cc([C@H](O)[C@H](CO)Oc2ccc(CCCO[C@@H]3O[C@H](CO)[C@@H](O)[C@H](O)[C@H]3O)cc2OC)ccc1O` [Compound 23, threo-(7R,8R)-4,7,9,9′-tetrahydroxy-3,3′-dimethoxy-8-O-4′-neolignan-9′-O-β-D-glucopyranoside], the IC50 is more than 100 µM in test [1]; 68.2 ± 0.76 µM in test [2]; 73.16 ± 0.34 µM in test [8]; 90.06 ± 0.47 µM in test [4]; 82.12 ± 0.56 µM in test [5].

Take `COc1cc([C@H]2OC[C@H]3[C@@H]2CO[C@@H]3c2cc(OC)c(O)c(OC)c2)ccc1O` [Compound 30, (+)-medioresinol]: the IC50 in test [1] stood at 95.7 ± 2.44 µM; in test [2], 25.58 ± 0.12 µM; in test [8] it was 55.5 ± 1.85 µM; in test [4], 26.75 ± 0.21 µM; in test [5] it was 34.4 ± 0.5 µM.

In the case of `COc1cc([C@@H](O)[C@H](CO)Oc2ccc([C@@H]3OC[C@@H]4[C@H]3CO[C@H]4c3ccc(O)c(OC)c3)cc2OC)ccc1O` [Compound 32], the IC50 came out at 96.4 ± 2.26 µM in test [1]; 40.63 ± 0.23 µM in test [2]; 46.2 ± 0.67 µM in test [8]; 81.93 ± 0.78 µM in test [4]; 5.71 ± 0.17 µM in test [5].

For `COc1cc([C@@H](O)[C@H](CO)Oc2c(OC)cc([C@@H]3OC[C@@H]4[C@H]3CO[C@H]4c3cc(OC)c(O)c(OC)c3)cc2OC)ccc1O` [Compound 35, (7R,7′R,7^″R,8S,8′S,8^″S)-4′,4^″-dihydroxy-3,3′,3^″,5,5′-pentamethoxy-7,9′:7′,9-diepoxy-4,8^″-oxy-8,8′-sesquineolignan-7^″,9^″-diol], the half-inhibitory concentration (IC50) in test [1] stood at 65.9 ± 1.52 µM; in test [2] it was 31.18 ± 0.24 µM; in test [8], 26.2 ± 0.19 µM; in test [4], 63.16 ± 0.3 µM; in test [5] it was 19.7 ± 0.21 µM.

`COc1cc([C@H]2OC[C@H]3[C@H]2CO[C@@H]3c2cc(OC)c(O[C@@H](CO)[C@@H](O)c3cc(OC)c(O)c(OC)c3)c(OC)c2)cc(OC)c1O` [Compound 36, (7S,7′S,7^″S,8R,8′R,8^″R)-4′,4^″-dihydroxy-3,3′,3^″,5,5′,5^″-hexamethoxy-7,9′:7′,9-diepoxy-4,8^″-oxy-8,8′-sesquineolignan-7^″,9^″-diol]: the IC50 came out at 62.44 ± 0.42 µM in test [1]; 31.1 ± 0.44 µM in test [2]; 79.7 ± 1.17 µM in test [8]; 63.19 ± 0.33 µM in test [4]; 22.7 ± 1.07 µM in test [5].

`COc1cc(O)cc2c1C(=O)c1c(cc(C)c(C(=O)OCC(O)CO)c1O)C2=O` (stereo not shown) [Compound 44, variecolorquinones A] displayed an IC50 in test [1] of 23.1 ± 0.27 µM. The compound further returned an IC50 in test [2] of 13 ± 0.27 µM. In test [3], the “increase of glucose consumption” value is 42.8% and the “effect on glucose uptake (in words)” value is given as “stimulated glucose uptake”. Also, in test [4], the IC50 is 15.8 ± 0.29 µM. The IC50 in test [5] came out at 29.6 ± 0.4 µM. In addition, in test [6], the Ki was determined as 2.8 µM and the Inhibitory mode entry is reported as “Competitive”. In test [7], the “K SV (Stern-Volmer constant)” value is 23000 L/mol, the “n (number of binding sites)” value is given as 0.97 and the Kd was 17.2 µM.

In the case of `CN(CCOc1ccc(CC2SC(=O)NC2=O)cc1)c1ccccn1` (stereo not shown) [rosiglitazone, reference compound], the “increase of glucose consumption” value in test [3] is given as 46.7%.

As usually defined, the IC50 is the midpoint of a concentration-inhibition curve. What is called Ki is a measure of affinity in units of concentration, obtained from inhibition or displacement.

For the origin of these results see paper PMC8545574, “Antioxidant, Anti-Inflammatory, and Antidiabetic Activities of Bioactive Compounds from the Fruits of Livistona chinensis Based on Network Pharmacology Prediction” (Oxidative Medicine and Cellular Longevity, 2021).
